For this experiment, the target named is Tyrosine-protein kinase HCK (Homo sapiens) (UniProt P08631). The experiment is described as follows: inhibitors of human HCK tyrosine kinase activity – biochemical, Z'-LYTE, FRET readout, direct format, dose response (AID 1671291). Conditions: Z'-LYTE FRET peptide phosphorylation, recombinant HCK.

Results on one compound are retold here after PubChem BioAssay AID1671291.

SMILES strings stand for the structures. pIC50: −log10 of the molar value.

Sequence of Tyrosine-protein kinase HCK (Homo sapiens) (P08631 whole entry, looked up): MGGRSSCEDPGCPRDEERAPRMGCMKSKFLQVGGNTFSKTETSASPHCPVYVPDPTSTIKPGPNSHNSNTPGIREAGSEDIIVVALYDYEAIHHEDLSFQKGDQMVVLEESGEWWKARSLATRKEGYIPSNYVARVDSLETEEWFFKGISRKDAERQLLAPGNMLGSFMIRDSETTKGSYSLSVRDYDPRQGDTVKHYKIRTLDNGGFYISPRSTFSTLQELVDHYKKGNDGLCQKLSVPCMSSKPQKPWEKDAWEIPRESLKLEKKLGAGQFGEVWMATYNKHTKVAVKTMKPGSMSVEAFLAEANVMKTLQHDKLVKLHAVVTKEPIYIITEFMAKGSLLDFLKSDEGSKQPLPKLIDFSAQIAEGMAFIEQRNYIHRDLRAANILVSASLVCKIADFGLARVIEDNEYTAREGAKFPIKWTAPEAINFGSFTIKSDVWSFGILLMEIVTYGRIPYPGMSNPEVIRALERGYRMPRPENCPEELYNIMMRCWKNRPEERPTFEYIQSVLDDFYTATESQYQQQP

With `COc1cc2ncnc(Nc3cccc(Cl)c3)c2cc1OC`, the pIC50 is 6.03.

By pIC50 is commonly meant −log10 of the IC50, conventionally taken in molar units.
